Test results taken from patent US7723358B2, “Aroyl-O-piperidine derivatives for the treatment of diabetes-related problems” (Merck Patent GmbH, priority 2004, dated 2010).

molecular target: T1, microsomal triglyceride transfer protein (MTP) (Mesocricetus auratus, UniProt P55158); test: Inhibition of MTP activity: transfer of [3H]-triolein from donor liposomes to biotinylated LDL, SPA; type: biochemical; conditions: MTP from golden hamster liver; incubation 18-24 hours at 37° C.; read-out: IC50, concentration that allows a 50% inhibition of MTP
T1 construct: The supernatant comprising the soluble MTP is dialysed against Tris/HCl 150 mM; from tissue; host or cells: golden hamster liver microsomes, deoxycholate-solubilised supernatant, dialysed
T1 sequence (P55158 19-895): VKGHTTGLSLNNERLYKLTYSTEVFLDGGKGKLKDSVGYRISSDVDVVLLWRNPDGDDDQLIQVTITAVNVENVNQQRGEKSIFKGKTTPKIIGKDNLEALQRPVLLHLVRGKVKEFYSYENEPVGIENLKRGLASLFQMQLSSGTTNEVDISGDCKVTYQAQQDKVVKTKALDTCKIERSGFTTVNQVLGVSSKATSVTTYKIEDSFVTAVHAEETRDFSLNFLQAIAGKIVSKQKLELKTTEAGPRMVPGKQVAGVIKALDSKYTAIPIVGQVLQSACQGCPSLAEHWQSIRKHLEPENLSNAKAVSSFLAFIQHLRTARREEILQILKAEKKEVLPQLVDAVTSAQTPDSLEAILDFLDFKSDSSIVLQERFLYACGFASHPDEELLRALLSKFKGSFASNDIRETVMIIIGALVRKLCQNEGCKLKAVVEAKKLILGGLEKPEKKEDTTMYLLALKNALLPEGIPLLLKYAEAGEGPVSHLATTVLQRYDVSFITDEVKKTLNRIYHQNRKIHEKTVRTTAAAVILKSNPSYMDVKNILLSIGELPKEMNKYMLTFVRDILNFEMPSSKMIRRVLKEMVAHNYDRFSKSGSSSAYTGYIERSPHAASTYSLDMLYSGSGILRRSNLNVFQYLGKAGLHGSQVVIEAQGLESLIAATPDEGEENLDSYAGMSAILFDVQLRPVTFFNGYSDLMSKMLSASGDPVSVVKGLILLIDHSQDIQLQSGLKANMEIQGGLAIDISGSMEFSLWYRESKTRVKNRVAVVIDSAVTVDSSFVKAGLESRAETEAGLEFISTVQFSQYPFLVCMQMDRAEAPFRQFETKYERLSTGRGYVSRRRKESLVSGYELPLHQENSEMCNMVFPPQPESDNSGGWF
Method: Analysis of the Inhibition of MTP Activity
The inhibition of the activity of microsomal triglyceride transfer protein (MTP) was tested by using the following operating protocol.
The inhibition of MTP activity with a compound can be quantified by observing the inhibition of the transfer of a labelled triglyceride, from a donor particle to an acceptor particle, in the presence of MTP. The procedure for the preparation of MTP is based on the method by Wetterau and Zilversmit (Biochem. Biophys. Acta (1986) 875, 610). A few grams of golden hamster liver are taken and then rinsed several times in a 250 mM sucrose solution at 0° C. All the following steps proceed at +4° C. A homogenate at a concentration of 50% in 250 mM sucrose is prepared using a Teflon mill and then centrifuged for 10 minutes at 10 000×g at +4° C. The supernatant is then centrifuged at 105 000×g for 75 minutes at +4° C. The supernatant is discarded and the microsomal pellet is taken up in 3 ml (per g of starting liver) of Tris/HCl 150 mM pH 8.0. 1-ml aliquot fractions are stored at −80° C. until the time of use.
After thawing a fraction of microsomes (1 ml), 12 ml of refrigerated Tris/HCl 50 mM, KCl 50 mM, MgCl2 5 mM pH 7.4 buffers and 1.2 ml of deoxycholate (0.54% in water) are added. After incubation for 30 minutes at +4° C. with gentle agitation, the suspension is centrifuged at 105 000×g for 75 minutes. The supernatant comprising the soluble MTP is dialysed against Tris/HCl 150 mM, NaCl 40 mM, EDTA 1 mM, 0.02% sodium azide pH 7.4 buffer (5 times one litre over 2-3 days). The MTP is stored at +4° C., is stable for at least 30 days and is used in unmodified form in the test.
The donor particles (liposomes) are prepared from 208 μl of L-phosphatidylcholine at a concentration of 10 mg/ml in chloroform, and 480 μl of [3H]-triolein at a concentration of 0.5 mCi/ml in toluene. After stirring, the solution is evaporated under nitrogen, taken up in 6 ml of Tris/HCl 50 mM, KCl 50 mM, MgCl2 5 mM pH 7.4 buffer and incubated in an ultrasound bath for 30 minutes at room temperature. The liposomes are stored at +4° C. and sonicated again for 10 minutes before each use.
The acceptor particles are biotinylated low density lipoproteins (LDL-biot). These particles are supplied by the company Amersham.
The reaction mixture is prepared in untreated ½ well white plates (Corning Costar) by addition, in the following order, of: 5 μl of HEPES 50 mM, NaCl 150 mM, BSA 0.1% (w/v), 0.05% sodium azide (w/v), pH 7.4 buffer; 5 μl of liposome; 5 μl of LDL-biot; 5 μl of test products in DMSO; 5 μl of MTP. After incubation for 18-24 hours at 37° C., the reaction is stopped by adding 100 μl of Amersham SPA (Scintillation Proximity Assay) beads coupled to streptavidin, and the radioactivity is counted using a Top Count (Packard) machine at least one hour later. The inhibition of the transfer of the triglycerides with a compound is reflected by a reduction in the transferred radioactivity.
The results are expressed in terms of the IC50, i.e. the concentration that allows a 50% inhibition of MTP.

| IC50 [nM] | SMILES |
| --- | --- |
| 207 | COc1ccc(CC(=O)N2CCC(Oc3cccc(NC(=O)c4cccc(C)c4-c4ccc(OC(F)(F)F)cc4)c3)CC2)cc1OC [Example 105, N-[3-[[1-[2-(3,4-dimethoxyphenyl)-acetyl]-4-piperidinyl]oxy]phenyl]-6-methyl-4′-(trifluoromethoxy)[1,1′-biphenyl]-2-carboxamide] |
| 221 | COc1ccc(C(=O)N2CCC(Oc3cccc(NC(=O)c4ccccc4-c4ccc(OC(F)(F)F)cc4)c3)CC2)cc1 [Example 138, N-[3-[[1-(4-methoxybenzoyl)-4-piperidin-yl]oxy]phenyl]-4′-(trifluoromethoxy)[1,1′-biphenyl]-2-carboxamide] |
| 347 | Cc1cccc(C(=O)Nc2cccc(OC3CCN(C(=O)Nc4ccccc4)CC3)c2)c1-c1ccc(OC(F)(F)F)cc1 [Example 11, 4-[3-[[[6-methyl-4′-(trifluoromethoxy)[1,1′-biphenyl]-2-yl]carbonyl]amino]phenoxy]-N-phenyl-1-piperidinecarboxamide] |
| 268 | Cc1ccc(NC(=O)N2CCC(Oc3cccc(NC(=O)c4cccc(C)c4-c4ccc(OC(F)(F)F)cc4)c3)CC2)cc1 [Example 29, N-(4-methylphenyl)-4-(3-[[[6-methyl-4′-(trifluoromethoxy)[1,1′-biphenyl]-2-yl]-carbonyl]amino]phenoxy]-1-piperidine-carboxamide] |
| 234 | CC(C)(C)OC(=O)N1CCC(Oc2cccc(NC(=O)c3ccccc3-c3ccc(OC(F)(F)F)cc3)c2)CC1 [Example 67, 1,1-dimethylethyl 4-[3-[[[4′-(trifluorometh-oxy)[1,1′-biphenyl]-2-yl]carbonyl]amino]-phenoxy]-1-piperidinecarboxylate] |
| 392 | Cc1ccc(CN2CCC(Oc3cccc(NC(=O)c4cccc(C)c4-c4ccc(OC(F)(F)F)cc4)c3)CC2)cc1 [Example 85, 6-methyl-N-[3-[[1-[(4-methylphenyl)-methyl]-4-piperidinyl]oxy]phenyl]-4′-(trifluoromethoxy)[1,1′-biphenyl]-2-carboxamide] |
| 65.2 | Cc1cccc(C(=O)Nc2cccc(OC3CCN(C(=O)Nc4cccc(C#N)c4)CC3)c2)c1-c1ccc(OC(F)(F)F)cc1 [Example 37, N-(3-cyanophenyl)-4-[3-[[[6-methyl-4′-(trifluoromethoxy)[1,1′-biphenyl]-2-yl]-carbonyl]amino]phenoxy]-1-piperidine-carboxamide] |
| 186 | Cc1cccc(C(=O)Nc2cccc(OC3CCN(Cc4cccs4)CC3)c2)c1-c1ccc(OC(F)(F)F)cc1 [Example 59, [1,1′-biphenyl]-6-methyl-N-[3-[[1-(2-thienylmethyl)-4-piperidinyl]oxy]phenyl]-4′-(trifluoromethoxy)-2-carboxamide] |
| 128 | CCOC(=O)CCC(=O)N1CCC(Oc2cccc(NC(=O)c3cccc(C)c3-c3ccc(OC(F)(F)F)cc3)c2)CC1 [Example 96, ethyl 4-[3-[[[6-methyl-4′-(trifluoromethoxy)-[1,1′-biphenyl]-2-yl]carbonyl]amino]-phenoxy]-γ-oxo-1-piperidinebutanoate] |
| 633 | Cc1cccc(CN2CCC(Oc3cccc(NC(=O)c4cccc(C)c4-c4ccc(OC(F)(F)F)cc4)c3)CC2)n1 [Example 83, 6-methyl-N-[3-[[1-[(6-methyl-2-pyridinyl)-methyl]-4-piperidinyl]oxy]phenyl]-4′-(trifluoromethoxy)[1,1′-biphenyl]-2-carboxamide] |
| 315 | Cc1cccc(C(=O)Nc2cccc(OC3CCN(Cc4cccnc4)CC3)c2)c1-c1ccc(OC(F)(F)F)cc1 [Example 81, 6-methyl-N-[3-[[1-(3-pyridinylmethyl)-4-piperidinyl]oxy]phenyl]-4′-(trifluorometh-oxy)[1,1′-biphenyl]-2-carboxamide] |
| 187 | Cc1cccc(C(=O)Nc2cccc(OC3CCN(C(=O)NC4CCCC4)CC3)c2)c1-c1ccc(OC(F)(F)F)cc1 [Example 57, N-cyclopentyl-4-[3-[[[6-methyl-4′-(trifluoro-methoxy)[1,1′-biphenyl]-2-yl]carbonyl]-amino]phenoxy]-1-piperidinecarboxamide] |
| 120 | Cc1cccc(C(=O)Nc2cccc(OC3CCN(C(=O)NCc4ccccc4)CC3)c2)c1-c1ccc(OC(F)(F)F)cc1 [Example 35, 4-[3-[[[6-methyl-4′-(trifluoromethoxy)[1,1′-biphenyl]-2-yl]carbonyl]amino]phenoxy]-N-(phenylmethyl)-1-piperidinecarbox-amide] |
| 416 | Cc1cccc(C(=O)Nc2cccc(OC3CCN(C(=O)c4cccs4)CC3)c2)c1-c1ccc(OC(F)(F)F)cc1 [Example 99, 6-methyl-N-[3-[[1-(2-thienylcarbonyl)-4-piperidinyl]oxy]phenyl]-4′-(trifluorometh-oxy)[1,1′-biphenyl]-2-carboxamide] |
| 392 | Cc1cccc(C(=O)Nc2cccc(OC3CCN(S(=O)(=O)c4cccc5nonc45)CC3)c2)c1-c1ccc(OC(F)(F)F)cc1 [Example 20, N-[3-[[1-(2,1,3-benzoxadiazol-4-yl-sulfonyl)-4-piperidinyl]oxy]phenyl]-6-methyl-4′-(trifluoromethoxy)[1,1′-biphenyl]-2-carboxamide] |
| 252 | COC(=O)CC(=O)N1CCC(Oc2cccc(NC(=O)c3ccccc3-c3ccc(OC(F)(F)F)cc3)c2)CC1 [Example 125, methyl β-oxo-4-[3-[[[4′-(trifluoromethoxy)-[1,1′-biphenyl]-2-yl]carbonyl]amino]-phenoxy]-1-piperidinepropanoate] |
| 82.5 | CCOC(=O)N1CCC(Oc2cccc(NC(=O)c3ccccc3-c3ccc(C(F)(F)F)cc3)c2)CC1 [Example 77, ethyl 4-[3-[[[4′-(trifluoromethyl)[1,1′-biphenyl]-2-yl]carbonyl]amino]phenoxy]-1-piperidinecarboxylate] |
| 158 | Cc1cccc(C(=O)Nc2cccc(OC3CCN(C(=O)Nc4ccccc4OC(F)(F)F)CC3)c2)c1-c1ccc(OC(F)(F)F)cc1 [Example 47, 4-[3-[[[6-methyl-4′-(trifluoromethoxy)[1,1′-biphenyl]-2-yl]carbonyl]amino]phenoxy]-N-(2-(trifluoromethoxy)phenyl]-1-piperi-dinecarboxamide] |
| 74.1 | Cc1cccc(C(=O)Nc2cccc(OC3CCN(Cc4ccccc4)CC3)c2)c1-c1ccc(OC(F)(F)F)cc1 [Example 58, [1,1′-biphenyl]-6-methyl-N-[3-[[1-(phenyl-methyl)-4-piperidinyl]oxy]phenyl]-4′-(trifluoromethoxy)-2-carboxamide] |
